US4438044A, “Di-L-cysteine L-malate and process for the production thereof” (priority 1980, dated 1984)
≈ marks a conversion by molar mass, not a printed value.

Tests used:
[1] = assay type: physicochemical
Protocol: The storage stability of the above crystalline product and L-cysteine hydrochloride anhydride is measured by keeping them at 40° C. The results are shown in the accompanying FIG. 3.

[2] = Solubility in water; assay type: physicochemical; details: 10° C.

## N[C@@H](CS)C(=O)O [di-L-cysteine L-malate]
[1]
  stability in the crystalline form: extremely stable
  storage stability: excellent stability
[2]
  solubility: 222 mg/mL (≈ 1830 mM)
